Source: the NIST ThermoML archive (doi:10.1016/j.fluid.2004.09.013)

Conditions: for mass density: Fluid (supercritical or subcritical phases), Vibrating tube method; for vapor or sublimation pressure: Liquid

C/C=C\C [(Z)-2-butene]
Conditions | mass density [kg/m3]
273.24 K, 530 kPa | 644.99
273.24 K, 5019 kPa | 650.08
273.24 K, 10002 kPa | 655.33
273.24 K, 15013 kPa | 660.23
273.24 K, 19996 kPa | 664.79
273.24 K, 24988 kPa | 669.08
273.24 K, 29997 kPa | 673.15
273.24 K, 35005 kPa | 677.01
273.24 K, 39991 kPa | 680.66
278.25 K, 531 kPa | 639.3
278.25 K, 4987 kPa | 644.61
278.25 K, 10000 kPa | 650.13
278.25 K, 15004 kPa | 655.23
278.25 K, 19984 kPa | 659.97
278.25 K, 25004 kPa | 664.45
278.25 K, 30003 kPa | 668.65
278.25 K, 34993 kPa | 672.62
278.25 K, 39994 kPa | 676.39
283.26 K, 528 kPa | 633.56
283.26 K, 5005 kPa | 639.17
283.26 K, 9984 kPa | 644.91
283.26 K, 14999 kPa | 650.24
283.26 K, 19995 kPa | 655.17
283.26 K, 25010 kPa | 659.81
283.26 K, 29992 kPa | 664.14
283.26 K, 35004 kPa | 668.25
283.26 K, 39997 kPa | 672.15
288.27 K, 531 kPa | 627.75
288.27 K, 4995 kPa | 633.64
288.27 K, 10005 kPa | 639.69
288.27 K, 14999 kPa | 645.22
288.27 K, 20014 kPa | 650.37
288.27 K, 25005 kPa | 655.16
288.27 K, 29991 kPa | 659.64
288.27 K, 34992 kPa | 663.87
288.27 K, 40003 kPa | 667.9
293.28 K, 532 kPa | 621.87
293.28 K, 4990 kPa | 628.07
293.28 K, 10006 kPa | 634.4
293.28 K, 20011 kPa | 645.53
293.28 K, 25006 kPa | 650.48
293.28 K, 30000 kPa | 655.14
293.28 K, 34996 kPa | 659.52
293.28 K, 39986 kPa | 663.65
293.29 K, 14995 kPa | 640.16
298.29 K, 29993 kPa | 650.63
298.3 K, 528 kPa | 615.89
298.3 K, 5009 kPa | 622.46
298.3 K, 9991 kPa | 629.06
298.3 K, 14998 kPa | 635.11
298.3 K, 20004 kPa | 640.67
298.3 K, 24996 kPa | 645.82
298.3 K, 34987 kPa | 655.14
298.3 K, 40002 kPa | 659.43
303.31 K, 568 kPa | 609.88
303.31 K, 4986 kPa | 616.72
303.31 K, 9987 kPa | 623.69
303.31 K, 15011 kPa | 630.03
303.31 K, 20004 kPa | 635.8
303.31 K, 25003 kPa | 641.15
303.31 K, 29993 kPa | 646.12
303.31 K, 34986 kPa | 650.78
303.31 K, 40003 kPa | 655.2
308.32 K, 610 kPa | 603.77
308.32 K, 5003 kPa | 610.96
308.32 K, 9990 kPa | 618.26
308.32 K, 14985 kPa | 624.84
308.32 K, 19996 kPa | 630.86
308.32 K, 24991 kPa | 636.41
308.32 K, 29986 kPa | 641.56
308.32 K, 34983 kPa | 646.37
308.32 K, 40002 kPa | 650.92
313.2 K, 842 kPa | 598.01
313.2 K, 25002 kPa | 631.74
313.21 K, 4983 kPa | 605.15
313.21 K, 9999 kPa | 612.86
313.21 K, 14998 kPa | 619.73
313.21 K, 19993 kPa | 625.98
313.21 K, 29990 kPa | 637.05
313.21 K, 34989 kPa | 642.02
313.21 K, 39990 kPa | 646.68
318.21 K, 898 kPa | 591.77
318.21 K, 4989 kPa | 599.26
318.21 K, 9999 kPa | 607.36
318.21 K, 14989 kPa | 614.54
318.21 K, 19986 kPa | 621.05
318.21 K, 24990 kPa | 627.03
318.21 K, 30002 kPa | 632.56
318.21 K, 34994 kPa | 637.68
318.21 K, 39987 kPa | 642.47
323.21 K, 965 kPa | 585.41
323.21 K, 4984 kPa | 593.22
323.21 K, 9985 kPa | 601.76
323.21 K, 14986 kPa | 609.3
323.21 K, 20004 kPa | 616.11
323.21 K, 25000 kPa | 622.31
323.21 K, 29993 kPa | 628.01
323.21 K, 34993 kPa | 633.32
323.21 K, 40000 kPa | 638.29
328.21 K, 14983 kPa | 604.03
328.21 K, 25010 kPa | 617.59
328.21 K, 34998 kPa | 628.95
328.21 K, 40002 kPa | 634.07
328.22 K, 1031 kPa | 578.91
328.22 K, 4985 kPa | 587.11
328.22 K, 9992 kPa | 596.13
328.22 K, 19995 kPa | 611.12
328.22 K, 29991 kPa | 623.48
333.22 K, 1102 kPa | 572.28
333.22 K, 4993 kPa | 580.89
333.22 K, 10002 kPa | 590.44
333.22 K, 14991 kPa | 598.72
333.22 K, 19994 kPa | 606.12
333.22 K, 24988 kPa | 612.8
333.22 K, 30003 kPa | 618.94
333.22 K, 34991 kPa | 624.59
333.22 K, 40010 kPa | 629.87
338.22 K, 1174 kPa | 565.5
338.22 K, 4996 kPa | 574.54
338.22 K, 9996 kPa | 584.64
338.22 K, 14984 kPa | 593.34
338.22 K, 19986 kPa | 601.06
338.22 K, 25003 kPa | 608.03
338.22 K, 29995 kPa | 614.37
338.22 K, 34988 kPa | 620.2
338.22 K, 39995 kPa | 625.64
343.22 K, 1261 kPa | 558.56
343.22 K, 4987 kPa | 568.03
343.22 K, 9997 kPa | 578.77
343.22 K, 14987 kPa | 587.91
343.22 K, 19988 kPa | 595.98
343.22 K, 25014 kPa | 603.24
343.22 K, 30005 kPa | 609.78
343.22 K, 34992 kPa | 615.82
343.22 K, 40014 kPa | 621.42
348.22 K, 1356 kPa | 551.46
348.22 K, 4981 kPa | 561.37
348.22 K, 10002 kPa | 572.81
348.22 K, 14996 kPa | 582.44
348.22 K, 19993 kPa | 590.86
348.22 K, 25004 kPa | 598.39
348.22 K, 30012 kPa | 605.19
348.22 K, 34983 kPa | 611.41
348.22 K, 39993 kPa | 617.18
353.22 K, 1456 kPa | 544.16
353.22 K, 5002 kPa | 554.62
353.22 K, 14994 kPa | 576.89
353.22 K, 19998 kPa | 585.7
353.22 K, 24991 kPa | 593.51
353.22 K, 29987 kPa | 600.55
353.22 K, 34994 kPa | 606.99
353.22 K, 40002 kPa | 612.94
353.23 K, 10003 kPa | 566.75
358.22 K, 1569 kPa | 536.68
358.22 K, 4987 kPa | 547.6
358.22 K, 9992 kPa | 560.57
358.22 K, 15002 kPa | 571.3
358.22 K, 19998 kPa | 580.5
358.22 K, 24995 kPa | 588.63
358.22 K, 29992 kPa | 595.93
358.22 K, 34990 kPa | 602.57
358.22 K, 40000 kPa | 608.7
363.23 K, 1690 kPa | 528.95
363.23 K, 4993 kPa | 540.42
363.23 K, 9989 kPa | 554.28
363.23 K, 15000 kPa | 565.61
363.23 K, 19996 kPa | 575.23
363.23 K, 25014 kPa | 583.72
363.23 K, 29996 kPa | 591.25
363.23 K, 34991 kPa | 598.13
363.23 K, 40007 kPa | 604.46
368.22 K, 1794 kPa | 520.86
368.22 K, 4994 kPa | 533.05
368.22 K, 9998 kPa | 547.94
368.22 K, 15001 kPa | 559.86
368.22 K, 20006 kPa | 569.97
368.22 K, 24996 kPa | 578.78
368.22 K, 30000 kPa | 586.63
368.23 K, 35006 kPa | 593.73
368.23 K, 40001 kPa | 600.21
373.23 K, 1956 kPa | 512.69
373.23 K, 5016 kPa | 525.44
373.23 K, 10014 kPa | 541.44
373.23 K, 15017 kPa | 554.07
373.23 K, 20017 kPa | 564.64
373.23 K, 25015 kPa | 573.81
373.23 K, 30004 kPa | 581.92
373.23 K, 35002 kPa | 589.24
373.23 K, 39988 kPa | 595.91
378.23 K, 2103 kPa | 504.11
378.23 K, 5016 kPa | 517.48
378.23 K, 9997 kPa | 534.7
378.23 K, 15005 kPa | 548.12
378.23 K, 19992 kPa | 559.18
378.23 K, 24999 kPa | 568.75
378.23 K, 29991 kPa | 577.18
378.23 K, 34989 kPa | 584.74
378.23 K, 39985 kPa | 591.64
383.23 K, 2265 kPa | 495.17
383.23 K, 4994 kPa | 509.13
383.23 K, 9994 kPa | 527.89
383.23 K, 15008 kPa | 542.15
383.23 K, 20012 kPa | 553.81
383.23 K, 24996 kPa | 563.74
383.23 K, 29984 kPa | 572.46
383.23 K, 34981 kPa | 580.28
383.23 K, 40007 kPa | 587.41
388.23 K, 2438 kPa | 485.86
388.23 K, 4986 kPa | 500.47
388.23 K, 9987 kPa | 520.91
388.23 K, 14983 kPa | 536.02
388.23 K, 19990 kPa | 548.28
388.23 K, 24990 kPa | 558.67
388.23 K, 30000 kPa | 567.77
388.23 K, 34996 kPa | 575.85
388.23 K, 39999 kPa | 583.17
393.23 K, 2620 kPa | 476.09
393.23 K, 4998 kPa | 491.49

Conditions | vapor or sublimation pressure [kPa]
290.72 K | 166.5
297.95 K | 212.17
306.92 K | 280.95
316.39 K | 369.5
326.09 K | 483.32
331.25 K | 549.64
335.93 K | 625.67
344.91 K | 767.01
345.17 K | 778.59
353.84 K | 949.22
364.75 K | 1196.6
367.83 K | 1274.3
376.36 K | 1508.8
380.95 K | 1643.2
382.47 K | 1703.7
390.94 K | 1988
